Columns and labels:
[1] = tested on: glutaminase activity in mitochondria isolated from breast cancer cell lines; assay: Mitochondrial glutaminase activity assay; type: biochemical, human
Text: Breast cancer cells were fractionated into cytosolic, mitochondrial, and nuclear components via partial lysis and centrifugation using the Qproteome Mitochondria Isolation Kit (Qiagen). For all samples, a portion of the starting material (i.e. whole cells) was retained for comparison with the isolated fractions. When cellular fractions were to be analyzed only by western blot, a single 10 cm dish of exponentially growing cells was used. When mitochondria were isolated for glutaminase assays, two 15 cm dishes of exponentially growing cells were used.
A two-reaction protocol was used to measure mitochondrial glutaminase activity. […] The reaction was then quenched by addition of 10 μl of 2.4 M HCl, and samples placed on ice. Next, 20 μl of quenched Reaction Mix 1 was added to 200 μl of Reaction Mix 2 (1 unit bovine liver glutamate dehydrogenase (Sigma-Aldrich), 80 mM Tri-HCl pH 9.4, 200 mM hydrazine, 0.25 mM ADP, 2 mM NAD) and samples were incubated for 1 hour at room temperature. The absorbance at 340 nm was then measured against a matched sample in which heat-inactivated mitochondria (immersed in boiling water for 5 minutes) were used. A standard curve was prepared using given concentrations of glutamate in Reaction Mix 2, allowing the amount of glutamate produced in Reaction 1 to be determined.

[2] = tested on: MDA-MB-453 xenograft tumors; assay: MDA-MB-453 xenograft tumor growth in mice; type: in vivo; conditions: 10 mg/kg, 3 times per week from Day 14 for three weeks, NSG mice
Procedure: (§1) All experiments involving mice were carried out according to protocols approved by the Institutional Animal Care and Use Committee at Cornell University. In all cases, 6-8 week old female NOD.Cg-Prkdcscid Il2rg^tm1Wjl/SzJ (NSG) mice (The Jackson Laboratory) were used. For xenograft experiments, a suspension of MDA-MB-453 breast cancer cells (or derivative cell lines stably expressing shRNAs) was mixed 1:1 with Matrigel Matrix (BD Biosciences) to give a final concentration of 3×10^6 cells per 100 μl, and 3×10^6 cells were immediately injected into each of the two flanks of 6-8 week old female NOD.Cg-Prkdc^scid Il2rg^tm1Wjl/SzJ (NSG) mice (n=3 mice per condition). Tumor sizes were measured using calipers, and estimated volumes were calculated using the formula V=(π/6)×length×width^2, as described previously (Tomayko et al., “Determination of Subcutaneous Tumor Size in Athymic (Nude) Mice,” Cancer Chemother Pharmacol. 24:148-154 (1989), which is hereby incorporated by reference in its entirety). For experiments using MDA-MB-453 cells stably expressing shRNAs, mice were sacrificed after 6 weeks. For 968 treatment studies, when tumors of 1-2 mm diameter were detected, the mice were randomly divided into two groups and intraperitoneal (IP) injections of 968 (10 mg/kg) solution or carrier solution were initiated and carried out three times weekly. […]

[3] = biological target: T1, recombinant full-length human GLS (GAC splice variant) (Homo sapiens, UniProt O94925); assay: Real-time recombinant glutaminase activity assay, GLS; type: biochemical; conditions: different concentrations
T1 construct: processed forms of human GAC (residues 72 to 598); inferred from pQE80 vector and Ni-NTA/imidazole purification; made in house; host or cells: E. coli BL21(DE3)
Procedure: Real-time monitoring of glutaminase activity through NADH production was performed on a Cary Eclipse fluorescence spectrometer. The excitation and emission wavelengths were set at 340 nm and 460 nm, respectively. […] Then, 100 μl of either 100 nM GAC or 500 nM GLS2 was added to this mixture and the fluorescence emission was monitored in real time. After 30 s, 200 μl of a mixture of glutamine and K2HPO4 was added such that the final concentrations of K2HPO4 and glutamine were 100 mM and 20 mM, respectively. The initial velocity of glutamine hydrolysis was obtained from the slopes of the linear portion of the kinetic curve.

[4] = biological target: T1, recombinant full-length human GLS (GAC splice variant); conditions: previously reported (Wang et al. 2010); cited from earlier work
[5] = tested on: breast cancer cell lines; assay: 6-day cell proliferation assay, collection of breast cancer cell lines; type: cell-based, human
Procedure: Human breast cancer cell lines MCF7, BT-474, T-47D, MDA-MB-453, MDA-MB-231, Hs 578T, HCC38, SK-BR-3, and DU4475 were purchased from the American Type Culture Collection (ATCC) and no additional cell authentication was performed. The TSE human breast cancer cell line was supplied by Dr. Steven Abcouwer (University of Michigan). All breast cancer cells were cultured at 37° C. under a 5% CO2 atmosphere in RPMI 1640 medium containing 2 mM glutamine (Gibco) and supplemented with 10% fetal bovine serum (FBS) (Gibco). The 293T cell line (ATCC) used for generating lentivirus particles was cultured as above but using DMEM, high glucose (Gibco).
Culture medium was added to 12-well plates (1 ml/well) and wells were seeded with cells at Day 0 as follows. MCF7, T-47D, BT-474, HCC38 cells: […] cells/well. MDA-MB-453 and MDA-MB-231 cells: 1×10^4 cells/well. TSE and Hs 578T cells: 0.3×10^4 cells/well. After 16 hours, culture medium was replaced with fresh medium supplemented with appropriate concentrations of inhibitors and was subsequently replaced every 48 hours. On Day 6 cells were trypsinized and suspended in an appropriate volume of culture medium, and the total number of cells per well was determined using a hemocytometer or a TC20 Automated Cell Counter (Bio-Rad).

[6] = tested on: primary human mammary epithelial cells or fibroblasts; conditions: Wang et al. 2010; cited from earlier work
[7] = Gross toxicity in treated mice; type: in vivo; conditions: 10 mg/kg body weight, three times weekly for three weeks
Procedure: as §1

T1 sequence (O94925 72-598 isoform O94925-3): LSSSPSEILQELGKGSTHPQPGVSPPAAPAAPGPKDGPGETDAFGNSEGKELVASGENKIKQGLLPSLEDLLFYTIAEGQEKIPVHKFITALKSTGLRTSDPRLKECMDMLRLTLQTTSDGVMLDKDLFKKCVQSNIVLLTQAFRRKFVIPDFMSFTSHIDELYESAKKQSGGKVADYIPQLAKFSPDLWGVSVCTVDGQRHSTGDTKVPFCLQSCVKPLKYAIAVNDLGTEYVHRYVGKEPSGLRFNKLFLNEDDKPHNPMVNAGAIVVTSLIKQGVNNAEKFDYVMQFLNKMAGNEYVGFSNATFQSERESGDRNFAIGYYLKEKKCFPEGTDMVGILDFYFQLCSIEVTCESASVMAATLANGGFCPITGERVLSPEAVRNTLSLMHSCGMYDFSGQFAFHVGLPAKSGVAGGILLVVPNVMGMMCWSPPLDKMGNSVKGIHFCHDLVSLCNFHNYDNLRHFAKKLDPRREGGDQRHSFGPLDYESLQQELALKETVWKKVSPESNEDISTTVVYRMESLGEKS

Compound	inhibition of mitochondrial glutaminase activity ([1]; mitochondria from MDA-MB-453 cells)	inhibition of mitochondrial glutaminase activity ([1]; mitochondria from basal-subtype cells, 10 μM)	inhibition of mitochondrial glutaminase activity ([1]; mitochondria from luminal-subtype breast cancer cells)	tumor growth [2]	inhibition of recombinant GLS activity [3]	binding and inhibition of GLS splice variant GAC [4]	EC50 ([5]; breast cancer cells, 6 days) [µM]	maximal inhibition ([5]; cells with highest expression of GLS)	growth of primary human mammary epithelial cells or fibroblasts [6]	toxicity [7]
O=C(Cc1ccccc1)Nc1nnc(CCSCCc2nnc(NC(=O)Cc3ccccc3)s2)s1 [BPTES]	no effect on activity	almost completely abolished	only partially inhibited	did not significantly impact tumor growth						
CN(C)c1ccc(C2Nc3ccc4ccccc4c3C3=C2C(=O)CC(C)(C)C3)cc1Br (centres unmarked) [Compound 968]				robustly inhibited	inhibited	binds and inhibits	3 to 5	70-75%	does not affect the growth	no gross evidence of toxicity

— patent US20250275964A1, “METHODS OF INHIBITING LIVER-TYPE GLUTAMINASE, GLS2” (CORNELL UNIVERSITY, priority 2019, published 2025)
